Data on eight compounds can be found in PubChem BioAssay (NCI).

Some test systems named below: NCI-H460 lung; IGROV1 ovarian; MALME-3M melanoma; SF-539 CNS; A549 NSCLC; MOLT-4 leukemia; SK-OV-3 ovarian; HCC-2998 colon; OVCAR-5 ovarian; CAKI-1 renal.
Common to all, as to assay: DTP human tumour cell line panel, 48 h

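Dose response: 5 concentrations. Exposure: 48 h. Format: 96-well plates. Endpoint: linear interpolation; highest concentration if not reached. GI50 is the concentration that inhibits growth by half. TGI: concentration producing complete growth inhibition.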

The term TGI denotes the concentration giving total growth inhibition. Read a low TGI as more potent growth arrest. For orientation: GI50 means the concentration that inhibits growth by half.

Consider `CCOC(=O)C(C(=O)OCC)C(=O)c1ccccc1C(=O)c1ccccc1`, for which the TGI in the assay with NCI-H460 lung is over 100 µM; with IGROV1 ovarian, over 100 µM; in the assay with MALME-3M melanoma, over 100 µM; in the assay on SF-539 CNS, over 100 µM; in the assay on A549 NSCLC, over 100 µM; in the assay on MOLT-4 leukemia, 83.6 µM. Further, the TGI with SK-OV-3 ovarian, in the assay with HCC-2998 colon, in the assay with OVCAR-5 ovarian and in the assay with CAKI-1 renal was over 100 µM in each case.
Turning to `Cc1ccc2nc(-c3ccc(N)c4ccccc34)[nH]c2c1`, the GI50 was 3.97 µM with NCI-H460 lung; 0.424 µM in the assay with IGROV1 ovarian; 5.85 µM with MALME-3M melanoma; 0.0607 µM in the assay with SF-539 CNS; 0.781 µM in the assay with A549 NSCLC; 1.36 µM with MOLT-4 leukemia. Also, the GI50 is 0.283 µM in the assay with SK-OV-3 ovarian, 0.356 µM in the assay with HCC-2998 colon, 0.326 µM in the assay with OVCAR-5 ovarian and 0.405 µM in the assay with CAKI-1 renal. Also, the TGI in the assay with IGROV1 ovarian is over 42.4 µM; with MALME-3M melanoma it was 27.3 µM; with SF-539 CNS it was 1.64 µM; in the assay on A549 NSCLC, over 46.2 µM; in the assay with MOLT-4 leukemia it was 17.3 µM; in the assay with SK-OV-3 ovarian it was over 46.7 µM. Besides, the values for the TGI with HCC-2998 colon, in the assay on OVCAR-5 ovarian and in the assay with CAKI-1 renal were 12.1 µM, over 73.3 µM and 5.62 µM, respectively.
`Nc1nccc2c1ncn2C1OC(CO)C(O)C1O` (stereo not given): the GI50 was 73.8 µM with NCI-H460 lung; 44.7 µM in the assay with IGROV1 ovarian; over 100 µM in the assay on MALME-3M melanoma; over 100 µM in the assay on SF-539 CNS; over 100 µM in the assay with A549 NSCLC; over 100 µM with MOLT-4 leukemia. Also, the GI50 with SK-OV-3 ovarian, with HCC-2998 colon, in the assay on OVCAR-5 ovarian and in the assay on CAKI-1 renal was over 100 µM in each case. The TGI in the assay on NCI-H460 lung, in the assay on IGROV1 ovarian, in the assay on MALME-3M melanoma, with SF-539 CNS, in the assay on A549 NSCLC and in the assay with MOLT-4 leukemia was over 100 µM throughout. For the same compound, the TGI in the assay on SK-OV-3 ovarian, with HCC-2998 colon, in the assay with OVCAR-5 ovarian and in the assay with CAKI-1 renal was over 100 µM throughout.
Take `COc1cccc(N=N/C(=N\NC(=O)c2cc(Br)ccc2O)c2ccc(N(CCC#N)CCC#N)cc2OC)c1`: the GI50 was 24.9 µg/mL in the assay on NCI-H460 lung; 53.7 µg/mL in the assay with IGROV1 ovarian; 57.7 µg/mL with MALME-3M melanoma; 42.7 µg/mL in the assay on SF-539 CNS; 49.3 µg/mL in the assay with A549 NSCLC; 54.7 µg/mL with MOLT-4 leukemia. For the same compound, the GI50 with SK-OV-3 ovarian was 72.6 µg/mL; in the assay on HCC-2998 colon, 21.3 µg/mL; in the assay on OVCAR-5 ovarian, 79.2 µg/mL; with CAKI-1 renal, 88.6 µg/mL. The TGI in the assay on NCI-H460 lung was 82.7 µg/mL; in the assay with IGROV1 ovarian it was over 150 µg/mL; in the assay on MALME-3M melanoma, 142 µg/mL; with SF-539 CNS it was over 150 µg/mL; with A549 NSCLC it was over 150 µg/mL; in the assay on MOLT-4 leukemia, over 150 µg/mL. Further, the TGI is over 150 µg/mL with SK-OV-3 ovarian, 73.2 µg/mL with HCC-2998 colon, over 150 µg/mL with OVCAR-5 ovarian and over 150 µg/mL with CAKI-1 renal.
For the compound `CCN(CC)CCn1c2ccc(OC)cc2c2sc3cc(OC)ccc3c(=O)c21`, the GI50 is 1.08 µM in the assay with NCI-H460 lung; 1.53 µM in the assay with IGROV1 ovarian; 1.59 µM with MALME-3M melanoma; 1.66 µM in the assay on SF-539 CNS; 1.59 µM in the assay on A549 NSCLC; 0.383 µM in the assay on MOLT-4 leukemia. Further, the GI50 in the assay with SK-OV-3 ovarian is 3.07 µM; in the assay on HCC-2998 colon it was 1.48 µM; in the assay on OVCAR-5 ovarian, 1.92 µM; in the assay on CAKI-1 renal it was 1.65 µM. Further, the TGI in the assay with NCI-H460 lung is 2.52 µM; with IGROV1 ovarian, 3.61 µM; in the assay with MALME-3M melanoma it was 3.18 µM; with SF-539 CNS it was 3.05 µM; in the assay on A549 NSCLC, 5.71 µM; with MOLT-4 leukemia, 1.89 µM. The TGI in the assay with SK-OV-3 ovarian came to 10.3 µM; in the assay with HCC-2998 colon, 3.14 µM; in the assay on OVCAR-5 ovarian it was 4.92 µM; in the assay on CAKI-1 renal, 3.77 µM.
Consider `COC(=O)[C@]12CC[C@@H](C)[C@H](C)[C@@H]1C1=CC[C@@H]3[C@@]4(C)C(C=O)=C[C@@](C)(COS(C)(=O)=O)C4[C@H](O)C[C@@]3(C)[C@]1(C)CC2` (stereo not given in full), for which the GI50 with NCI-H460 lung is 2.15 µM; in the assay on IGROV1 ovarian, 2.58 µM; in the assay on MALME-3M melanoma it was 1.65 µM; in the assay on SF-539 CNS, 1.83 µM; with A549 NSCLC, 2.64 µM; in the assay with MOLT-4 leukemia it was 0.313 µM. Further, the GI50 was 4.08 µM in the assay with SK-OV-3 ovarian, 1.69 µM in the assay on HCC-2998 colon, 1.96 µM in the assay with OVCAR-5 ovarian and 2.05 µM with CAKI-1 renal. The TGI came out at 4.93 µM in the assay with NCI-H460 lung; 7.36 µM in the assay on IGROV1 ovarian; 3.39 µM with MALME-3M melanoma; 3.71 µM in the assay with SF-539 CNS; 11 µM in the assay on A549 NSCLC; 1.05 µM in the assay with MOLT-4 leukemia. The TGI was 16.2 µM in the assay with SK-OV-3 ovarian, 3.12 µM in the assay with HCC-2998 colon, 6.5 µM with OVCAR-5 ovarian and 5.58 µM in the assay on CAKI-1 renal.
For the compound `O=C(Nc1ccc(Br)cc1)C(=O)C(C(=O)c1ccccc1F)C1OC(=O)c2ccccc21` (stereo not given), the concentration for total growth inhibition (TGI) in the assay with NCI-H460 lung is over 100 µM; in the assay on IGROV1 ovarian, over 100 µM; with MALME-3M melanoma, 88.6 µM; in the assay on SF-539 CNS, 66.9 µM; with A549 NSCLC, over 100 µM; in the assay with MOLT-4 leukemia, 92.8 µM. The TGI with SK-OV-3 ovarian was over 100 µM; in the assay with HCC-2998 colon, 32.1 µM; in the assay with OVCAR-5 ovarian it was over 100 µM; in the assay with CAKI-1 renal it was 94.2 µM.
As to `N#Cc1ccc(Oc2cccc(Oc3ccccc3)c2)cc1C#N`, the TGI with NCI-H460 lung, with IGROV1 ovarian, with MALME-3M melanoma, in the assay on SF-539 CNS, in the assay on A549 NSCLC and in the assay on MOLT-4 leukemia was over 100 µM in each case. In addition, the TGI in the assay with SK-OV-3 ovarian, in the assay on HCC-2998 colon, in the assay on OVCAR-5 ovarian and with CAKI-1 renal was over 100 µM each time. The GI50 with IGROV1 ovarian, with MALME-3M melanoma, with SK-OV-3 ovarian, in the assay with HCC-2998 colon, with OVCAR-5 ovarian and with CAKI-1 renal was over 100 µM each time.
